Measurements reported in the supplement of paper PMC10627819.

Tests used:
[1] = test system: B. subtilis 168; assay: Bliss interaction score (quartile over a dose matrix) (fitness difference); higher = more antagonism (negative = synergy)
Outline: (§1)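 Growth in each well was taken as OD595 at entry into stationary phase. Dividing by the plate's robust no-drug mean and capping at 1 gave fitness, and single-drug fitness was inferred from the combination data. The Bliss score, observed minus product-expected fitness, is summarised by quartiles over technical, biological and donor/recipient replicates.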

[2] = test system: S. aureus Newman; assay: as above
Outline: as §1

[3] = test system: S. pneumoniae D39V; assay: as above
Outline: as §1

[4] = test system: S. aureus DSM 20231; assay: as above
Outline: as §1

[5] = test system: S. aureus Newman; assay: fitness (endpoint OD595 vs no drug) (fraction); higher = more growth
Outline: (§2)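 Fitness expresses the optical density reached at the stationary-phase transition as a fraction of the robust mean of no-drug control wells. It is capped at 1. Measurements were OD595 every 30 min for 14 h at 37 °C after inoculation of 384-well plates at OD595 0.01 (30 µl, or 55 µl for S. pneumoniae), minus the first reading.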

[6] = test system: S. pneumoniae D39V; assay: as above
Outline: as §2

[7] = test system: S. aureus DSM 20231; assay: as above
Outline: as §2
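For Bliss interaction score (quartile over a dose matrix) in this document: first quartile when negative (synergy) and third quartile when positive (antagonism).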

CC1(C)S[C@@H]2[C@H](NC(=O)[C@H](N)c3ccc(O)cc3)C(=O)N2[C@H]1C(=O)O [Amoxicillin] + CN(N=O)C(=O)N[C@@H](C=O)[C@@H](O)[C@H](O)[C@H](O)CO [Streptozotocin]
Conditions	Bliss interaction score
[1]	0.0362
[2]	-0.0299
[3]	-0.0885
[4]	-0.0844

fitness
Conditions	first compound 0.0008 µg/mL	first compound 0.0015 µg/mL	first compound 0.003 µg/mL	first compound 0.0625 µg/mL	first compound 0.125 µg/mL	first compound 0.25 µg/mL
[5], partner 0.15 µg/mL	–	–	–	0.769	0.736	0.753
[5], partner 0.3 µg/mL	–	–	–	0.669	0.677	0.64
[5], partner 0.6 µg/mL	–	–	–	0.523	0.524	0.491
[6], partner 1.2 µg/mL	0.935	0.866	0.844	–	–	–
[6], partner 2.4 µg/mL	0.963	0.945	0.929	–	–	–
[6], partner 4.8 µg/mL	0.928	0.877	0.812	–	–	–
[7], partner 0.15 µg/mL	–	–	–	0.434	0.362	0.0212
[7], partner 0.3 µg/mL	–	–	–	0.496	0.286	0.0296
[7], partner 0.6 µg/mL	–	–	–	0.41	0.234	0.0211

fitness, one replicate
Conditions	partner 0.15 µg/mL	partner 0.3 µg/mL	partner 0.6 µg/mL	partner 1.2 µg/mL	partner 2.4 µg/mL	partner 4.8 µg/mL
[6], first compound 0.006 µg/mL	–	–	–	0.376	0.405	0.365
[7], first compound 0.5 µg/mL	0.0024	0.0025	0	–	–	–

CO/N=C(\C(=O)N[C@@H]1C(=O)N2C(C(=O)[O-])=C(C[N+]3(C)CCCC3)CS[C@H]12)c1csc(N)n1 [Cefepime] + Cc1onc(-c2ccccc2)c1C(=O)N[C@@H]1C(=O)N2[C@@H]1SC(C)(C)[C@@H]2C(=O)O [Oxacillin]
Conditions	Bliss interaction score
[1]	-0.0609
[2]	0.11
[3]	-0.138
[4]	-0.054

Conditions	fitness
[5], first compound 0.125 µg/mL, partner 0.0156 µg/mL	0.828
[5], first compound 0.125 µg/mL, partner 0.0312 µg/mL	0.796
[5], first compound 0.125 µg/mL, partner 0.0625 µg/mL	0.71
[5], first compound 0.25 µg/mL, partner 0.0156 µg/mL	0.804
[5], first compound 0.25 µg/mL, partner 0.0312 µg/mL	0.753
[5], first compound 0.25 µg/mL, partner 0.0625 µg/mL	0.682
[5], first compound 0.5 µg/mL, partner 0.0156 µg/mL	0.768
[5], first compound 0.5 µg/mL, partner 0.0312 µg/mL	0.684
[5], first compound 0.5 µg/mL, partner 0.0625 µg/mL	0.667
[6], first compound 0.007 µg/mL, partner 0.005 µg/mL	0.997
[6], first compound 0.007 µg/mL, partner 0.01 µg/mL	≥ 1
[6], first compound 0.007 µg/mL, partner 0.02 µg/mL	0.986
[6], first compound 0.0078 µg/mL, partner 0.01 µg/mL	0.95
[6], first compound 0.0078 µg/mL, partner 0.02 µg/mL	0.825
[6], first compound 0.0078 µg/mL, partner 0.04 µg/mL	0.254
[6], first compound 0.014 µg/mL, partner 0.005 µg/mL	≥ 1
[6], first compound 0.014 µg/mL, partner 0.01 µg/mL	≥ 1
[6], first compound 0.014 µg/mL, partner 0.02 µg/mL	1
[6], first compound 0.0155 µg/mL, partner 0.01 µg/mL	0.86
[6], first compound 0.0155 µg/mL, partner 0.04 µg/mL	0.153
[6], first compound 0.028 µg/mL, partner 0.005 µg/mL	0.955
[6], first compound 0.028 µg/mL, partner 0.01 µg/mL	0.942
[6], first compound 0.028 µg/mL, partner 0.02 µg/mL	0.847
[6], first compound 0.031 µg/mL, partner 0.04 µg/mL	0.0453
[7], first compound 0.125 µg/mL, partner 0.0156 µg/mL	0.75
[7], first compound 0.125 µg/mL, partner 0.0312 µg/mL	0.641
[7], first compound 0.125 µg/mL, partner 0.0625 µg/mL	0.507
[7], first compound 0.25 µg/mL, partner 0.0156 µg/mL	0.826
[7], first compound 0.25 µg/mL, partner 0.0312 µg/mL	0.634
[7], first compound 0.25 µg/mL, partner 0.0625 µg/mL	0.578
[7], first compound 0.5 µg/mL, partner 0.0156 µg/mL	0.624
[7], first compound 0.5 µg/mL, partner 0.0312 µg/mL	0.565
[7], first compound 0.5 µg/mL, partner 0.0625 µg/mL	0.53

CO/N=C(\C(=O)N[C@@H]1C(=O)N2C(C(=O)[O-])=C(C[N+]3(C)CCCC3)CS[C@H]12)c1csc(N)n1 [Cefepime] + Cn1nnc(-c2ccc(-c3ccc(N4C[C@H](CO)OC4=O)cc3F)cn2)n1 [Tedizolid]
Conditions	Bliss interaction score
[1]	0.12
[2]	-0.0634
[3]	0.237
[4]	0.122

fitness
Conditions	partner 0.03125 µg/mL	partner 0.0625 µg/mL	partner 0.125 µg/mL	partner 0.25 µg/mL	partner 0.5 µg/mL
[5], first compound 0.125 µg/mL	–	0.858	0.837	–	–
[5], first compound 0.25 µg/mL	–	0.81	0.773	–	–
[5], first compound 0.5 µg/mL	–	0.728	0.717	–	–
[6], first compound 0.007 µg/mL	–	–	0.953	0.642	0.129
[6], first compound 0.0078 µg/mL	0.986	0.983	0.879	–	–
[6], first compound 0.014 µg/mL	–	–	0.95	0.626	0.149
[6], first compound 0.0155 µg/mL	0.969	0.974	0.895	–	–
[6], first compound 0.028 µg/mL	–	–	0.937	0.652	0.105
[6], first compound 0.031 µg/mL	0.971	0.948	0.888	–	–
[7], first compound 0.125 µg/mL	–	0.879	0.804	0.692	–
[7], first compound 0.25 µg/mL	–	0.796	0.738	0.601	–
[7], first compound 0.5 µg/mL	–	0.844	0.797	0.69	–

CC1(C)S[C@@H]2[C@H](NC(=O)[C@H](N)c3ccc(O)cc3)C(=O)N2[C@H]1C(=O)O [Amoxicillin] + CC1=C\[C@@H](O)CC(=O)Cc2nc(co2)C(=O)N2CCC=C2C(=O)O[C@H](C(C)C)[C@H](C)/C=C/C(=O)NC\C=C\1 [Virginiamycin M1]
Conditions	Bliss interaction score
[1]	-0.0567
[2]	0.0682
[3]	-0.0459
[4]	-0.0553

Conditions	fitness
[5], first compound 0.0625 µg/mL, partner 0.0625 µg/mL	0.935
[5], first compound 0.0625 µg/mL, partner 0.125 µg/mL	0.893
[5], first compound 0.0625 µg/mL, partner 0.25 µg/mL	0.906
[5], first compound 0.125 µg/mL, partner 0.0625 µg/mL	0.883
[5], first compound 0.125 µg/mL, partner 0.125 µg/mL	0.948
[5], first compound 0.125 µg/mL, partner 0.25 µg/mL	0.945
[5], first compound 0.25 µg/mL, partner 0.0625 µg/mL	0.867
[5], first compound 0.25 µg/mL, partner 0.125 µg/mL	0.921
[5], first compound 0.25 µg/mL, partner 0.25 µg/mL	0.886
[6], first compound 0.0008 µg/mL, partner 0.5 µg/mL	0.988
[6], first compound 0.0008 µg/mL, partner 1 µg/mL	≥ 1
[6], first compound 0.0008 µg/mL, partner 2 µg/mL	0.937
[6], first compound 0.0015 µg/mL, partner 0.5 µg/mL	0.978
[6], first compound 0.0015 µg/mL, partner 1 µg/mL	0.965
[6], first compound 0.0015 µg/mL, partner 2 µg/mL	0.95
[6], first compound 0.003 µg/mL, partner 0.5 µg/mL	0.926
[6], first compound 0.003 µg/mL, partner 1 µg/mL	0.956
[6], first compound 0.003 µg/mL, partner 2 µg/mL	0.914
[7], first compound 0.0625 µg/mL, partner 0.0625 µg/mL	0.48
[7], first compound 0.0625 µg/mL, partner 0.125 µg/mL	0.488
[7], first compound 0.0625 µg/mL, partner 0.25 µg/mL	0.504
[7], first compound 0.125 µg/mL, partner 0.0625 µg/mL	0.329
[7], first compound 0.25 µg/mL, partner 0.125 µg/mL	0.0421
[7], first compound 0.25 µg/mL, partner 0.25 µg/mL	0.0398

one replicate
Conditions	fitness
[5], first compound 0.125 µg/mL, partner 0.5 µg/mL	0.81
[5], first compound 0.125 µg/mL, partner 1 µg/mL	≥ 1
[5], first compound 0.125 µg/mL, partner 2 µg/mL	0.845
[5], first compound 0.25 µg/mL, partner 0.5 µg/mL	0.813
[5], first compound 0.25 µg/mL, partner 1 µg/mL	0.865
[5], first compound 0.25 µg/mL, partner 2 µg/mL	0.754
[5], first compound 0.5 µg/mL, partner 0.5 µg/mL	0.74
[5], first compound 0.5 µg/mL, partner 1 µg/mL	0.828
[5], first compound 0.5 µg/mL, partner 2 µg/mL	0.732
[6], first compound 0.0008 µg/mL, partner 0.15 µg/mL	0.996
[6], first compound 0.0008 µg/mL, partner 0.3 µg/mL	0.892
[6], first compound 0.0015 µg/mL, partner 0.15 µg/mL	0.948
[6], first compound 0.0015 µg/mL, partner 0.3 µg/mL	0.9
[6], first compound 0.003 µg/mL, partner 0.15 µg/mL	0.951
[6], first compound 0.003 µg/mL, partner 0.3 µg/mL	0.906
[6], first compound 0.006 µg/mL, partner 0.5 µg/mL	0.447
[6], first compound 0.006 µg/mL, partner 1 µg/mL	0.474
[6], first compound 0.006 µg/mL, partner 2 µg/mL	0.46
[7], first compound 0.0625 µg/mL, partner 0.5 µg/mL	0.541
[7], first compound 0.0625 µg/mL, partner 1 µg/mL	0.699
[7], first compound 0.125 µg/mL, partner 0.5 µg/mL	0.444
[7], first compound 0.125 µg/mL, partner 1 µg/mL	0.497
[7], first compound 0.25 µg/mL, partner 0.5 µg/mL	0.0437
[7], first compound 0.25 µg/mL, partner 1 µg/mL	0.108
[7], first compound 0.5 µg/mL, partner 0.0625 µg/mL	0.0149
[7], first compound 0.5 µg/mL, partner 0.125 µg/mL	0.0318
[7], first compound 0.5 µg/mL, partner 0.25 µg/mL	0.0127
